Experimental findings from the METLIN SMRT retention time set (Domingo-Almenara et al. 2019) are described below.

The structures appear in SMILES notation.

The data set can be described thus: gradient 5% acetonitrile 3 min, to 50% in 2 min, to 85% in 15 min, held 3 min, 100 µL/min. Conditions: column: Zorbax Extend-C18 2.1 x 50 mm; eluents: water / acetonitrile, 0.1% formic acid. A digest of the protocol: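 Retention time was recorded from adduct peaks, which were picked computationally and each inspected manually. Pure standards ran in mixtures of ~100 molecules on HPLC coupled to a quadrupole time-of-flight mass spectrometer, in positive and negative ionization mode, through a Zorbax Extend-C18 column (2.1 × 50 mm, 1.8 μm) at 100 μL/min. Eluents were water and acetonitrile, each with 0.1% formic acid.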
Compound `CCOc1ccc(N(CC)C(=O)c2nc(N(C)C)c3cnn(C)c3n2)cc1` yielded an RP-LC retention time of 745 s.

For the compound `O=C(Nc1cc(F)ccc1F)C1CCCN(c2ncnc3c2nc2n3CCCCC2)C1` (stereo not drawn), the RP-LC retention time was determined as 774 s.

The compound `COc1ccc(-c2csc(NC(=O)CS(=O)(=O)c3ccc(Cl)cc3)n2)cc1OC` displayed an RP-LC retention time of 926 s.

With `CCc1nnc(-c2ccc(=O)n(CC(=O)Nc3ccc(C)cc3C)c2)o1`, the RP-LC retention time worked out at 693 s.

Compound `CCOc1ccc(-c2noc(Cn3c(=O)n(-c4ccc(F)cc4)c(=O)c4sccc43)n2)cc1OC` had an RP-LC retention time of 940 s.

Consider `CCC(C)NC(=O)C1CCN(C(=O)c2cc3ccsc3n2Cc2cccc(OC)c2)CC1` (stereo not drawn), for which the RP-LC retention time was 633 s.

With `COc1ccc(NC(=O)NCCn2c(C(F)(F)F)nc3cccnc32)cc1`, the RP-LC retention time is 701 s.

As for `CC1=C(c2ccccc2)S(=O)(=O)N=C1N1CCCN(C(=O)C2CCOC2)CC1` (stereo not drawn), the RP-LC retention time came to 675 s.

`COc1cccc(-c2ccc3nc(N4CCC(C(=O)NC(C)C)CC4)sc3n2)c1` gave an RP-LC retention time of 895 s.

As to `CC1CCCN(c2nn(CC(=O)Nc3ccc(F)cc3)c(=O)c3ccccc23)C1` (stereo not drawn), the RP-LC retention time turned out to be 1090 s.

In the case of `O=C(Nc1ccc(N2CCN(c3ccccc3)C2=O)nc1)c1ccc(F)c(F)c1`, the RP-LC retention time was 989 s.

Turning to `O=S(=O)(NCC1CCCO1)c1cccc2cccnc12` (stereo not drawn), the RP-LC retention time amounted to 680 s.

Turning to `O=C1Nc2ccccc2C(=O)N2CCCC12` (stereo not drawn), the RP-LC retention time turned out to be 590 s.

For `CC(C)(C)c1ccc(OCC(O)CN)cc1` (stereo not drawn), the RP-LC retention time is 585 s.

`CCc1noc(NC(C)=O)c1-c1ccc(C)c(S(=O)(=O)NC2CCCCCC2)c1` showed an RP-LC retention time of 909 s.

`CCOc1ccc(C(=O)NCc2c(C)noc2C)cc1` gave an RP-LC retention time of 733 s.

Regarding `C=CCNC(=O)NC1CCN(C2=NS(=O)(=O)C(c3ccccc3)=C2C)CC1`, the RP-LC retention time worked out at 705 s.

Regarding `COc1ccccc1N1CCN(CCNC(=O)C(=O)NC2CCCCC2)CC1`, the RP-LC retention time was 599 s.

`O=C(Nc1ccc(C2(C(=O)NCC3CCCO3)CC2)cc1)c1cccs1` (stereo not drawn) gave an RP-LC retention time of 753 s.

`Cc1cc(Cl)ccc1N1C(=O)CN(S(C)(=O)=O)CC1(C)C(=O)NCc1ccccc1` (stereo not drawn) gave an RP-LC retention time of 863 s.

In turn, `CCS(=O)(=O)N1CCCN(C(=O)NC(C)(C)C)CC1` displayed an RP-LC retention time of 663 s.

`c1cc(-c2noc(-c3cccnc3)n2)cc(-c2ccn[nH]2)c1` showed an RP-LC retention time of 777 s.

Take `O=C(Cn1cccc(-c2nc(-c3ccc(Cl)cc3)no2)c1=O)Nc1ccc2c(c1)OCO2`: the RP-LC retention time is 916 s.

As to `CCc1nc2cc(-c3noc(-c4ccc(OC)cc4C)n3)ccc2o1`, the RP-LC retention time is 1270 s.

`COc1ccc(S(=O)(=O)N2C[C@@H](F)C[C@H]2C(=O)N2CCOCC2)cc1OC` returned an RP-LC retention time of 640 s.

Consider `COCCCNC(=O)C1c2ccccc2C(=O)N(C2CCCCC2)C12CCCCC2` (stereo not drawn), for which the RP-LC retention time came out at 946 s.

As to `O=C(Nc1cc(C(F)(F)F)ccc1Cl)c1cccc(Oc2ncccn2)c1`, the RP-LC retention time is 900 s.

`C=CCN1C(=O)COc2ccc(-c3nc(NC(=O)c4cc(OC)cc(OC)c4)sc3C)cc21` came in with an RP-LC retention time of 1090 s.

On to `Nc1cc(C(=O)Nc2ccccc2F)ccc1N1CC2CC(C1)c1cccc(=O)n1C2` (stereo not drawn), for which the RP-LC retention time is 740 s.

`O=C1CSc2ccc(S(=O)(=O)N3CCC(C(=O)NC4CCCC4)CC3)cc2N1` returned an RP-LC retention time of 746 s.

`COc1cc(-c2noc(CN3C(=O)COc4cc(Cl)ccc43)n2)cc(OC)c1OC` showed an RP-LC retention time of 1020 s.

Take `COc1ncccc1C(=O)N1CCC(C(=O)Nc2nccs2)CC1`: the RP-LC retention time came out at 605 s.

In turn, `COc1cc(-c2nc(Nc3ccc(C)cc3)c3ccccc3n2)cc(OC)c1OC` had an RP-LC retention time of 796 s.
